Measured values reported in patent publication US20250236639A1, “NEUROACTIVE STEROIDS AND COMPOSITIONS THEREOF” (Sage Therapeutics, Inc., priority 2019, published 2025).
pIC50: −log10 of the molar value.

biological target: GABAA receptor; assay: Steroid inhibition of [35S]-TBPS binding, rat brain cortical membranes; details: 3 nM [35S]-TBPS, in the presence of 5 mM GABA
Procedure: [^35S]-t-Butylbicyclophosphorothionate (TBPS) binding assays using rat brain cortical membranes in the presence of 5 mM GABA has been described (Gee et al, J. Pharmacol. Exp. Ther. 1987, 241, 346-353; Hawkinson et al, Mol. Pharmacol. 1994, 46, 977-985; Lewin, A. H et al., Mol. Pharmacol. 1989, 35, 189-194).
Briefly, cortices are rapidly removed following decapitation of carbon dioxide-anesthetized Sprague-Dawley rats (200-250 g). The cortices are homogenized in 10 volumes of ice-cold 0.32 M sucrose using a glass/teflon homogenizer and centrifuged at 1500×g for 10 min at 4° C. The resultant supernatants are centrifuged at 10,000×g for 20 min at 4° C. to obtain the P2 pellets. The P2 pellets are resuspended in 200 mM NaCl/50 mM Na—K phosphate pH 7.4 buffer and centrifuged at 10,000×g for 10 min at 4° C. This washing procedure is repeated twice and the pellets are resuspended in 10 volumes of buffer. Aliquots ([…]) of the membrane suspensions are incubated with 3 nM [^35S]-TBPS and […] aliquots of test drug dissolved in dimethyl sulfoxide (DMSO) (final 0.5%) in the presence of 5 mM GABA. The incubation is brought to a final volume of 1.0 mL with buffer. Nonspecific binding is determined in the presence of […] and ranged from 15 to 25%. Following a 90 min incubation at room temp, the assays are terminated by filtration through glass fiber filters (Schleicher and Schuell No. 32) using a cell harvester (Brandel) and rinsed three times with ice-cold buffer. Filter bound radioactivity is measured by liquid scintillation spectrometry. Non-linear curve fitting of the overall data for each drug averaged for each concentration is done using Prism (GraphPad). […] The concentration of test compound producing 50% inhibition (IC50) of specific binding and the maximal extent of inhibition (Imax) are determined for the individual experiments with the same model used for the overall data and then the means±SEM.s of the individual experiments are calculated.
Various compounds are or can be screened to determine their potential as modulators of [^35S]-TBPS binding in vitro. These assays are or can be performed in accordance with the above

First: CCC[C@@]1(O)CC[C@@]2(CC)[C@H](CC[C@H]3[C@@H]4CC[C@H]([C@](C)(O)Cn5cc(C#N)cn5)[C@@]4(C)CC[C@@H]32)C1 [Compound 44, 1-((S)-2-((3R,5R,8S,9S,10S,13S,14S,17S)-10-ethyl-3-hydroxy-13-methyl-3-propylhexadecahydro-1H-cyclopenta[a]phenanthren-17-yl)-2-hydroxypropyl)-1H-pyrazole-4-carbonitrile]
Second: CCC[C@@]1(O)CC[C@@]2(CC)[C@H](CC[C@H]3[C@@H]4CC[C@H]([C@@](C)(O)Cn5cc(C#N)cn5)[C@@]4(C)CC[C@@H]32)C1 [Compound 45, 1-((R)-2-((3R,5R,8S,9S,10S,13S,14S,17S)-10-ethyl-3-hydroxy-13-methyl-3-propylhexadecahydro-1H-cyclopenta[a]phenanthren-17-yl)-2-hydroxypropyl)-1H-pyrazole-4-carbonitrile]
The pIC50 of the first is higher: over 7.00 for the first, 6.00 to 7.00 for the second.

`CC[C@]12CC[C@](O)(COC)C[C@H]1CC[C@H]1[C@@H]3CC[C@H]([C@](C)(O)Cn4cc(C#N)cn4)[C@@]3(C)CC[C@@H]12` [Compound 42, 1-((S)-2-((3R,5R,8S,9S,10S,13S,14S,17S)-10-ethyl-3-hydroxy-3-(methoxymethyl)-13-methylhexadecahydro-1H-cyclopenta[a]phenanthren-17-yl)-2-hydroxypropyl)-1H-pyrazole-4-carbonitrile] and `CC[C@]12CC[C@](O)(COC)C[C@H]1CC[C@H]1[C@@H]3CC[C@H]([C@@](C)(O)Cn4cc(C#N)cn4)[C@@]3(C)CC[C@@H]12` [Compound 43, 1-((R)-2-((3R,5R,8S,9S,10S,13S,14S,17S)-10-ethyl-3-hydroxy-3-(methoxymethyl)-13-methylhexadecahydro-1H-cyclopenta[a]phenanthren-17-yl)-2-hydroxypropyl)-1H-pyrazole-4-carbonitrile] cannot be ordered by pIC50: over 7.00 for the first, over 7.00 for the second.

Compared with `CCC[C@@]1(O)CC[C@H]2[C@H](CC[C@@H]3[C@@H]2CC[C@@]2(C)[C@H]3CC[C@@H]2[C@@](C)(O)Cn2ccc(C#N)n2)C1` [Compound 23, 1-((R)-2-hydroxy-2-((3R,5R,8R,9R,10S,13S,14S,17S)-3-hydroxy-13-methyl-3-propylhexadecahydro-1H-cyclopenta[a]phenanthren-17-yl)propyl)-1H-pyrazole-3-carbonitrile], `CCC[C@@]1(O)CC[C@H]2[C@H](CC[C@@H]3[C@@H]2CC[C@@]2(C)[C@H]3CC[C@@H]2[C@](C)(O)Cn2cc(C#N)cn2)C1` [Compound 7, 1-((S)-2-hydroxy-2-((3R,5R,8R,9R,10S,13S,14S,17S)-3-hydroxy-13-methyl-3-propylhexadecahydro-1H-cyclopenta[a]phenanthren-17-yl)propyl)-1H-pyrazole-4-carbonitrile] is higher in pIC50: 6.00 to 7.00 for the first, over 7.00 for the second. The second is the more potent here.

`C[C@H]1C[C@H]2[C@H](CC[C@@H]3[C@@H]2CC[C@@]2(C)[C@H]3CC[C@@H]2[C@@](C)(O)Cn2cc(C#N)cn2)C[C@]1(C)O` [Compound 51, 1-((R)-2-hydroxy-2-((2S,3S,5R,8R,9R,10S,13S,14S,17S)-3-hydroxy-2,3,13-trimethylhexadecahydro-1H-cyclopenta[a]phenanthren-17-yl)propyl)-1H-pyrazole-4-carbonitrile] and `C[C@@H]1C[C@H]2[C@H](CC[C@@H]3[C@@H]2CC[C@@]2(C)[C@H]3CC[C@@H]2[C@](C)(O)Cn2cc(C#N)cn2)C[C@]1(C)O` [Compound 52, 1-((S)-2-hydroxy-2-((2R,3S,5R,8R,9R,10S,13S,14S,17S)-3-hydroxy-2,3,13-trimethylhexadecahydro-1H-cyclopenta[a]phenanthren-17-yl)propyl)-1H-pyrazole-4-carbonitrile] cannot be ordered by pIC50: over 7.00 for the first, over 7.00 for the second.

Compared with `CCOC[C@@]1(O)CC[C@@]2(C)[C@H](CC[C@@H]3[C@@H]2CC[C@@]2(C)[C@H]3CC[C@@H]2[C@](C)(O)Cn2cc(C#N)cn2)C1` [Compound 24, 1-((S)-2-((3R,5R,8R,9S,10S,13S,14S,17S)-3-(ethoxymethyl)-3-hydroxy-10,13-dimethylhexadecahydro-1H-cyclopenta[a]phenanthren-17-yl)-2-hydroxypropyl)-1H-pyrazole-4-carbonitrile], `CCC[C@@]1(O)CC[C@@]2(C)[C@H](CC[C@@H]3[C@@H]2CC[C@@]2(C)[C@H]3CC[C@@H]2[C@@](C)(O)Cn2cc(C#N)cn2)C1` [Compound 27, 1-((R)-2-hydroxy-2-((3R,5R,8R,9S,10S,13S,14S,17S)-3-hydroxy-10,13-dimethyl-3-propylhexadecahydro-1H-cyclopenta[a]phenanthren-17-yl)propyl)-1H-pyrazole-4-carbonitrile] is lower in pIC50: over 7.00 for the first, 6.00 to 7.00 for the second.

`C[C@@]1(O)CC[C@H]2[C@H](CC[C@@H]3[C@@H]2CC[C@]2(C)[C@@H](C4(Cn5cc(C#N)cn5)CC4)CC[C@@H]32)C1` [Compound 39, 1-((1-((3R,5R,8R,9R,10S,13S,14S,17S)-3-hydroxy-3,13-dimethylhexadecahydro-1H-cyclopenta[a]phenanthren-17-yl)cyclopropyl)methyl)-1H-pyrazole-4-carbonitrile] and `C[C@@]1(O)CC[C@H]2[C@H](CC[C@@H]3[C@@H]2CC[C@@]2(C)[C@H]3[C@H](C3CC3)C[C@@H]2[C@](C)(O)Cn2cc(C#N)cn2)C1` [Compound 47, 1-((S)-2-((3R,5R,8R,9R,10S,13S,14S,15S,17S)-15-cyclopropyl-3-hydroxy-3,13-dimethylhexadecahydro-1H-cyclopenta[a]phenanthren-17-yl)-2-hydroxypropyl)-1H-pyrazole-4-carbonitrile] cannot be ordered by pIC50: over 7.00 for the first, over 7.00 for the second.

`CC(=O)c1cnn(C[C@@](C)(O)[C@H]2CC[C@H]3[C@@H]4CC[C@@H]5C[C@](C)(O)CC[C@@H]5[C@H]4CC[C@@]32C)c1` [Compound 31, 1-(1-((S)-2-hydroxy-2-((3R,5R,8R,9R,10S,13S,14S,17S)-3-hydroxy-3,13-dimethylhexadecahydro-1H-cyclopenta[a]phenanthren-17-yl)propyl)-1H-pyrazol-4-yl)ethanone] and `COC[C@@]1(O)CC[C@H]2[C@H](CC[C@@H]3[C@@H]2CC[C@@]2(C)[C@H]3CC[C@@H]2[C@](C)(O)Cn2cc(C#N)cn2)C1` [Compound 29, 1-((S)-2-hydroxy-2-((3R,5R,8R,9R,10S,13S,14S,17S)-3-hydroxy-3-(methoxymethyl)-13-methylhexadecahydro-1H-cyclopenta[a]phenanthren-17-yl)propyl)-1H-pyrazole-4-carbonitrile] cannot be ordered by pIC50: over 7.00 for the first, over 7.00 for the second.

First: COC[C@@]1(O)CC[C@H]2[C@H](CC[C@@H]3[C@@H]2CC[C@]2(C)[C@@H](C(C)(Cn4cc(C#N)cn4)OC)CC[C@@H]32)C1 (stereo in doubt) [Compound 32, 1-((R)-2-((3R,5R,8R,9R,10S,13S,14S,17S)-3-hydroxy-3-(methoxymethyl)-13-methylhexadecahydro-1H-cyclopenta[a]phenanthren-17-yl)-2-methoxypropyl)-1H-pyrazole-4-carbonitrile]
Second: COC[C@H]1C[C@H]2[C@H](CC[C@@H]3[C@@H]2CC[C@@]2(C)[C@H]3CC[C@@H]2[C@](C)(O)Cn2cc(C#N)cn2)C[C@]1(C)O [Compound 58, 1-((S)-2-hydroxy-2-((2R,3S,5R,8R,9R,10S,13S,14S,17S)-3-hydroxy-2-(methoxymethyl)-3,13-dimethylhexadecahydro-1H-cyclopenta[a]phenanthren-17-yl)propyl)-1H-pyrazole-4-carbonitrile]
The pIC50 of the first is lower: 6.00 to 7.00 for the first, over 7.00 for the second. The second is the more potent here.

Compared with `CC[C@H]1C[C@H]2[C@H](CC[C@@H]3[C@@H]2CC[C@@]2(C)[C@H]3CC[C@@H]2[C@@](C)(O)Cn2cc(C#N)cn2)C[C@]1(C)O` [Compound 35, 1-((R)-2-((2S,3S,5R,8R,9R,10S,13S,14S,17S)-2-ethyl-3-hydroxy-3,13-dimethylhexadecahydro-1H-cyclopenta[a]phenanthren-17-yl)-2-hydroxypropyl)-1H-pyrazole-4-carbonitrile], `C[C@H]1C[C@H]2[C@H](CC[C@@H]3[C@@H]2CC[C@@]2(C)[C@H]3CC[C@@H]2[C@](C)(O)Cn2cc(C#N)cn2)C[C@]1(C)O` [Compound 50, 1-((S)-2-hydroxy-2-((2S,3S,5R,8R,9R,10S,13S,14S,17S)-3-hydroxy-2,3,13-trimethylhexadecahydro-1H-cyclopenta[a]phenanthren-17-yl)propyl)-1H-pyrazole-4-carbonitrile] is higher in pIC50: 6.00 to 7.00 for the first, over 7.00 for the second. The second is the more potent here.
